In patent US20160176867A1, “MODIFIED BET-PROTEIN-INHIBITING DIHYDROQUINOXALINONES AND DIHYDROPYRIDOPYRAZINONES” (BAYER PHARMA AKTIENGESELLSCHAFT, priority 2013, published 2016):

Molecular target: T1, BRD4 bromo domain 2 [BRD4(2)] (Homo sapiens, UniProt O60885)
T1 construct: N-terminally His6-tagged BRD4(2) (amino acids 357-445); made in house; host or cells: E. coli
Assay: BRD4/acetylated peptide H4 binding assay (TR-FRET), BRD4 bromo domain 2
Details: inhibition of BRD4(2)/Ac-H4 peptide interaction
Summary of the method: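 Binding of His6-BRD4(2) (aa 357-445, 100 nM final) to biotinylated tetra-acetylated H4 peptide read by TR-FRET (665/620 nm). Compound preincubated 10 min at 22 °C, then 1 h at 22 °C plus ≥3 h at 4 °C. Eleven concentrations (0.1 nM–20 μM) in duplicate; IC50 by 4-parameter fit.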

Compound	IC50
C[C@@H]1C(=O)N(C)c2ccc(Nc3cccc(C(=O)N4CCN(C)CC4)c3)nc2N1C1CCOCC1 [Example 15, (3R)-1,3-Dimethyl-6-({3-[(4-methylpiperazin-1-yl)carbonyl]phenyl}amino)-4-(tetrahydro-2H-pyran-4-yl)-3,4-dihydropyrido[2,3-b]pyrazin-2(1H)-one]	196 nM
CC(C)N1c2nc(Nc3cccc(S(=O)(=O)NCCN(C)C)c3)ccc2N(C)C(=O)[C@H]1C [Example 55, N-[2-(dimethylamino)-ethyl]-3-{[(3R)-4-isopropyl-1,3-dimethyl-2-oxo-1,2,3,4-tetrahydro-pyrido[2,3-b]pyrazin-6-yl]amino}benzene-sulphonamide]	149 nM
C[C@@H]1C(=O)N(C)c2ccc(Nc3cccc(C(=O)NC4CCN(C)CC4)c3)nc2N1C1CCOCC1 [Example 13, 3-{[(3R)-1,3-Dimethyl-2-oxo-4-(tetrahydro-2H-pyran-4-yl)-1,2,3,4-tetrahydropyrido[2,3-b]pyrazin-6-yl]amino}-N-(1-methylpiperidin-4-yl)benzamide]	218 nM
C[C@@H]1C(=O)N(C)c2ccc(Nc3cccc(S(=O)(=O)N4CCOCC4)c3)cc2N1C1CCOCC1 [Example 8, (3R)-1,3-Dimethyl-6-{[3-(morpholin-4-ylsulphonyl)phenyl]amino}-4-(tetrahydro-2H-pyran-4-yl)-3,4-dihydroquinoxalin-2(1H)-one]	89 nM
CC(C)N1c2nc(Nc3cccc(C(=O)N4CCN(C)CC4)c3)ccc2N(C)C(=O)[C@H]1C [Example 77, (3R)-4-isopropl-1,3-dimethyl-6-({3-[(4-methylpiperazin-1-yl)carbonyl]phenyl}-amino)-3,4-dihydro-pyrido[2,3-b]pyrazin-2(1H)-one]	118 nM
Cc1nnc(-c2cccc(Nc3ccc4c(n3)N(C3CCOCC3)[C@H](C)C(=O)N4C)c2)o1 [Example 134, (3R)-1,3-Dimethyl-6-{[3-(5-methyl-1,3,4-oxadiazol-2-yl)phenyl]amino}-4-(tetrahydro-2H-pyran-4-yl)-3,4-dihydropyrido[2,3-b]pyrazin-2(1H)-one]	191 nM
CC1C(=O)N(C)c2ccc(Nc3cccc(C(=O)NC4CCN(C)CC4)c3)nc2N1c1ccccc1 (racemic) [Example 104, 3-[(1,3-dimethyl-2-oxo-4-phenyl-1,2,3.4-tetrahydropyrido[2,3-b]pyrazin-6-yl)amino]-A-(1-methylpiperidin-4-yl)benzamide]	471 nM
C[C@@H]1C(=O)N(C)c2ccc(Nc3cccc(C(=O)N[C@H]4CC[C@H](N5CCN(CC6CC6)CC5)CC4)c3)nc2N1C1CCOCC1 [Example 14, N-{trans-4-[4-(Cyclopropylmethyl)piperazin-1-yl]cyclohexyl}-3-{[(3R)-1,3-dimethyl-2-oxo-4-(tetrahydro-2H-pyran-4-yl)-1,2,3,4-tetrahydropyrido[2,3-b]pyrazin-6-yl]amino}benzamide]	170 nM
COc1ccc(CN2c3cc(Nc4cccc(S(=O)(=O)N(C)C)c4)ccc3N(C)C(=O)[C@H]2C)cc1 [Example 10, 3-{[(3R)-4-(4-Methoxybenzyl)-1,3-dimethyl-2-oxo-1,2,3,4-tetrahydroquinoxalin-6-yl]amino}-N,N-dimethylbenzenesulphonamide]	62 nM
CC(C)N1c2nc(Nc3cccc(S(=O)(=O)N[C@H]4CC[C@H](N5CCN(CC6CC6)CC5)CC4)c3)ccc2N(C)C(=O)[C@H]1C [Example 34, N-{trans-4-[4-(cyclopropylmethyl)piperazin-1-yl]cyclohexyl}-3-{[(3R)-4-isopropyl-1,3-dimethyl-2-oxo-1,2,3,4-tetrahydropyrido[2,3-b]pyrazin-6-yl]amino}-benzenesulphonamide]	125 nM
CC(C)N1c2nc(Nc3cccc(C(=O)N4CCN(CC5CC5)CC4)c3)ccc2N(C)C(=O)[C@H]1C [Example 88, (3R)-6-[(3-{[4-(cyclo-propylmethyl)piperazin-1-yl]carbonyl}phenyl)amino]-4-isopropyl-1,3-dimethyl-3,4-dihydropyrido[2,3-b]pyrazin-2(1H)-one]	177 nM
C[C@@H]1C(=O)N(C)c2ccc(Nc3cccc(C(=O)N4CCN(C)CC4)c3)nc2N1C1CCCC1 [Example 1, (3R)-4-Cyclopentyl-1,3-dimethyl-6-({3-[(4-methylpiperazin-1-yl)carbonyl]phenyl}amino)-3,4-dihydropyrido[2,3-b]pyrazin-2(1H)-one]	55 nM
CC(C)N1c2nc(Nc3cccc(S(=O)(=O)NC4CCN(C)CC4)c3)ccc2N(C)C(=O)[C@H]1C [Example 51, 3-{[(3R)-4-isopropyl-1,3-dimethyl-2-oxo-1,2,3,4-tetrahydropyrido[2,3-b]pyrazin-6-yl]amino}-N-(1-methylpiperidin-4-yl)benzenesulphonamide]	99 nM
CC(C)N1c2nc(Nc3cccc(S(=O)(=O)N4CCN(C)CC4)c3)ccc2N(C)C(=O)[C@H]1C [Example 43, (3R)-4-isopropyl-1,3-dimethyl-6-({3-[(4-methylpiperazin-1-yl)sulphonyl]phenyl}-amino)-3,4-dihydropyrido-[2,3-b]pyrazin-2(1H)-one]	96 nM
C[C@@H]1C(=O)N(C)c2ccc(Nc3cccc(C(=O)NC4CCN(C)CC4)c3)nc2N1C1CCCC1 [Example 2, 3-{[(3R)-4-Cyclopentyl-1,3-dimethyl-2-oxo-1,2,3,4-tetrahydropyrido[2,3-b]pyrazin-6-yl]amino}-N-(1-methylpiperidin-4-yl)benzamide]	89 nM
C[C@@H]1C(=O)N(C)c2ccc(Nc3cccc(S(=O)(=O)N4CCOCC4)c3)nc2N1C1CCOCC1 [Example 9, (3R)-1,3-Dimethyl-6-{[3-(morpholin-4-ylsulphonyl)phenyl]amino}-4-(tetrahydro-2H-pyran-4-yl)-3,4-dihydropyrido[2,3-b]pyrazin-2(1H)-one]	54 nM
C[C@@H]1C(=O)N(C)c2ccc(Nc3cccc(C(=O)N[C@H]4CC[C@H](N5CCN(CC6CC6)CC5)CC4)c3)nc2N1C1CCCC1 [Example 5, 3-{[(3R)-4-Cyclopentyl-1,3-dimethyl-2-oxo-1,2,3,4-tetrahydropyrido[2,3-b]pyrazin-6-yl]amino}-N-{trans-4-[4-(cyclopropylmethyl)piperazin-1-yl]cyclohexyl}benzamide]	59 nM
C[C@@H]1C(=O)N(C)c2ccc(Nc3cccc(C(=O)NC4CN(C)C4)c3)nc2N1C1CCCC1 [Example 3, 3-{[(3R)-4-Cyclopentyl-1,3-dimethyl-2-oxo-1,2,3,4-tetrahydropyrido[2,3-b]pyrazin-6-yl]amino}-N-(1-methylazetidin-3-yl)benzamide]	91 nM
C[C@@H]1C(=O)N(C)c2ccc(Nc3cccc(S(=O)(=O)N4CCN(C)CC4)c3)nc2N1C1CCOCC1 [Example 12, (3R)-1,3-Dimethyl-6-({3-[(4-methylpiperazin-1-yl)sulphonyl]phenyl}amino)-4-(tetrahydro-2H-pyran-4-yl)-3,4-dihydropyrido[2,3-b]pyrazin-2(1H)-one]	68 nM
C[C@@H]1C(=O)N(C)c2ccc(Nc3cccc(C(=O)NCCN(C)C)c3)nc2N1C1CCCC1 [Example 4, 3-{[(3R)-4-Cyclopentyl-1,3-dimethyl-2-oxo-1,2,3,4-tetrahydropyrido[2,3-b]pyrazin-6-yl]amino}-N-[2-(dimethylamino)ethyl]benzamide]	101 nM
C[C@@H]1C(=O)N(C)c2ccc(Nc3cccc(S(=O)(=O)NCCN(C)C)c3)nc2N1C1CCOCC1 [Example 21]	53 nM
C[C@@H]1C(=O)N(C)c2ccc(Nc3cccc(S(=O)(=O)NC4CCN(C)CC4)c3)nc2N1C1CCOCC1 [Example 20, 3-{[(3R)-1,3-Dimethyl-2-oxo-4-(tetrahydro-2H-pyran-4-yl)-1,2,3,4-tetrahydropyrido[2,3-b]pyrazin-6-yl]amino}-N-(1-methylpiperidin-4-yl)benzenesulphonamide]	52 nM
C[C@@H]1C(=O)N(C)c2ccc(Nc3cccc(S(=O)(=O)N[C@H]4CC[C@H](N5CCN(CC6CC6)CC5)CC4)c3)nc2N1C1CCOCC1 [Example 35, N-{trans-4-[4-(cyclopropylmethyl)-piperazin-1-yl]cyclohexyl}-3-{[(3R)-1,3-dimethyl-2-oxo-4-(tetrahydro-2H-pyran-4-yl)-1,2,3,4-tetrahydropyrido[2,3-b]pyrazin-6-yl]amino}-benzenesulphonamide]	69 nM
C[C@@H]1C(=O)N(C)c2ccc(Nc3cccc(S(=O)(=O)N(C)C)c3)cc2N1C1CCOCC1 [Example 7, 3-{[(3R)-1,3-Dimethyl-2-oxo-4-(tetrahydro-2H-pyran-4-yl)-1,2,3,4-tetrahydroguinoxalin-6-yl]amino}-N,N-dimethylbenzenesulphonamide]	71 nM
CC(C)N1c2nc(Nc3cccc(C(=O)N[C@H]4CC[C@H](N5CCN(CC6CC6)CC5)CC4)c3)ccc2N(C)C(=O)[C@H]1C [Example 79, N-{trans-4-[4-(cyclo-propylmethyl)piperazin-1-yl]cyclohexyl}-3-{[(3R)-4-isopropyl-1,3-dimethyl-2-oxo-1,2,3,4-tetrahydropyrido[2,3-b]pyrazin-6-yl]amino}benzamide]	116 nM
C[C@@H]1C(=O)N(C)c2ccc(Nc3cccc(S(=O)(=O)N(C)C)c3)nc2N1C1CCOCC1 [Example 6, 3-{[(3R)-1,3-Dimethyl-2-oxo-4-(tetrahydro-2H-pyran-4-yl)-1,2,3,4-tetrahydropyrido[2,3-b]pyrazin-6-yl]amino}-N,N-dimethylbenzenesulphonamide]	32 nM
